Laboratory results: patent US7138361B2, “Herbicidal heterocycles” (E. I. du Pont de Nemours and Company, priority 2000, dated 2006)

Experiments:
Assay in all cases: Test C postemergence
Format in all cases: in vivo
[1] = system: Surinam grass (Brachiaria decumbens)
Summary of the method: (§1)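 Each compound was dissolved in a non-phytotoxic solvent system containing a surfactant and sprayed either on freshly planted seeds (preemergence) or on young plants, 2 to 18 cm high (postemergence). Ratings after 12 to 14 greenhouse days ran from 0, no effect, to 100, complete control.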

[2] = system: chickweed (Stellaria media)
Summary of the method: as §1

[3] = system: cocklebur (Xanthium strumarium)
Summary of the method: as §1

[4] = system: common ragweed (Ambrosia elatior)
Summary of the method: as §1

corn (Zea mays) = system: corn (Zea mays)
Summary of the method: as §1

[5] = system: crabgrass (Digitaria sanguinalis)
Summary of the method: as §1

[6] = system: giant foxtail (Setaria faberii)
Summary of the method: as §1

[7] = system: goosegrass (Eleusine indica)
Summary of the method: as §1

[8] = system: johnsongrass (Sorghum halepense)
Summary of the method: as §1

kochia (Kochia scoparia) = system: kochia (Kochia scoparia)
Summary of the method: as §1

[9] = system: morningglory (Ipomoea hederacea)
Summary of the method: as §1

[10] = system: pigweed (Amaranthus retroflexus)
Summary of the method: as §1

soybean (Glycine max) = system: soybean (Glycine max)
Summary of the method: as §1

[11] = system: velvetleaf (Abutilon theophrasti)
Summary of the method: as §1

[12] = system: winter barley (Hordeum vulgare)
Summary of the method: as §1

[13] = system: woolly cupgrass (Eriochloa villosa)
Summary of the method: as §1

[14] = system: yellow nutsedge (Cyperus esculentus)
Summary of the method: as §1

[15] = Rate 125 g/ha, scale 0 to 100, 0 no effect, 100 complete control
[16] = Rate 250 g/ha, scale 0 to 100 (0 no effect, 100 complete control)
[17] = Rate 500 g/ha, scale 0 to 100 (0 no effect, 100 complete control)

Structure (SMILES): CCC(CC)c1ccn(C2OCN(c3cccc(OC(F)(F)F)c3)C2=O)n1 (centres unmarked) [Compound 68]
- Plant response rating, Surinam grass ([1]; Rate 62 g/ha, scale 0 to 100): 0
- Plant response rating, Surinam grass [1, 15]: 0
- Plant response rating, Surinam grass [1, 16]: 0
- Plant response rating, Surinam grass [1, 17]: 0
- Plant response rating, Chickweed ([2]; Rate 62 g/ha, scale 0 to 100): 30
- Plant response rating, Chickweed [2, 15]: 40
- Plant response rating, Chickweed [2, 16]: 70
- Plant response rating, Chickweed [2, 17]: 80
- Plant response rating, Cocklebur ([3]; Rate 62 g/ha, scale 0 to 100): 0
- Plant response rating, Cocklebur [3, 15]: 0
- Plant response rating, Cocklebur [3, 16]: 0
- Plant response rating, Cocklebur [3, 17]: 50
- Plant response rating, Ragweed, Common ([4]; Rate 62 g/ha, scale 0 to 100): 0
- Plant response rating, Ragweed, Common [4, 15]: 0
- Plant response rating, Ragweed, Common [4, 16]: 0
- Plant response rating, Ragweed, Common [4, 17]: 30
- Plant response rating, Corn (corn (Zea mays); Rate 62 g/ha, scale 0 to 100): 0
- Plant response rating, Corn (corn (Zea mays); [15]): 0
- Plant response rating, Corn (corn (Zea mays); [16]): 0
- Plant response rating, Corn (corn (Zea mays); [17]): 0
- Plant response rating, Crabgrass ([5]; Rate 62 g/ha, scale 0 to 100): 0
- Plant response rating, Crabgrass [5, 15]: 0
- Plant response rating, Crabgrass [5, 16]: 0
- Plant response rating, Crabgrass [5, 17]: 60
- Plant response rating, Foxtail, Giant ([6]; Rate 62 g/ha, scale 0 to 100): 0
- Plant response rating, Foxtail, Giant [6, 15]: 0
- Plant response rating, Foxtail, Giant [6, 16]: 0
- Plant response rating, Foxtail, Giant [6, 17]: 0
- Plant response rating, Goosegrass ([7]; Rate 62 g/ha, scale 0 to 100): 0
- Plant response rating, Goosegrass [7, 15]: 0
- Plant response rating, Goosegrass [7, 16]: 0
- Plant response rating, Goosegrass [7, 17]: 0
- Plant response rating, Johnsongrass ([8]; Rate 62 g/ha, scale 0 to 100): 0
- Plant response rating, Johnsongrass [8, 15]: 0
- Plant response rating, Johnsongrass [8, 16]: 0
- Plant response rating, Johnsongrass [8, 17]: 20
- Plant response rating, Kochia (kochia (Kochia scoparia); Rate 62 g/ha, scale 0 to 100): 50
- Plant response rating, Kochia (kochia (Kochia scoparia); [15]): 70
- Plant response rating, Kochia (kochia (Kochia scoparia); [16]): 70
- Plant response rating, Kochia (kochia (Kochia scoparia); [17]): 70
- Plant response rating, Morningglory ([9]; Rate 62 g/ha, scale 0 to 100): 50
- Plant response rating, Morningglory [9, 15]: 60
- Plant response rating, Morningglory [9, 16]: 60
- Plant response rating, Morningglory [9, 17]: 70
- Plant response rating, Pigweed ([10]; Rate 62 g/ha, scale 0 to 100): 60
- Plant response rating, Pigweed [10, 15]: 70
- Plant response rating, Pigweed [10, 16]: 70
- Plant response rating, Pigweed [10, 17]: 100
- Plant response rating, Soybean (soybean (Glycine max); Rate 62 g/ha, scale 0 to 100): 0
- Plant response rating, Soybean (soybean (Glycine max); [15]): 0
- Plant response rating, Soybean (soybean (Glycine max); [16]): 0
- Plant response rating, Soybean (soybean (Glycine max); [17]): 20
- Plant response rating, Velvetleaf ([11]; Rate 62 g/ha, scale 0 to 100): 0
- Plant response rating, Velvetleaf [11, 15]: 0
- Plant response rating, Velvetleaf [11, 16]: 0
- Plant response rating, Velvetleaf [11, 17]: 30
- Plant response rating, Barley, Winter [12, 16]: 0
- Plant response rating, Cupgrass, Woolly ([13]; Rate 62 g/ha, scale 0 to 100): 0
- Plant response rating, Cupgrass, Woolly [13, 15]: 0
- Plant response rating, Cupgrass, Woolly [13, 16]: 0
- Plant response rating, Cupgrass, Woolly [13, 17]: 30
- Plant response rating, Nutsedge ([14]; Rate 62 g/ha, scale 0 to 100): 0
- Plant response rating, Nutsedge [14, 15]: 0
- Plant response rating, Nutsedge [14, 16]: 0
- Plant response rating, Nutsedge [14, 17]: 0

Structure (SMILES): CC1(c2ccn(C3OCN(c4cccc(OC(F)(F)F)c4)C3=O)n2)CC1 (centres unmarked) [Compound 69]
- Plant response rating, Barley, Winter ([12]; Rate 62 g/ha, scale 0 to 100): 0
- Plant response rating, Barley, Winter [12, 15]: 0
- Plant response rating, Barley, Winter [12, 17]: 10

Structure (SMILES): CCCOc1cc(N2CCC(n3ccc(C(C)(C)C)n3)C2=O)ccc1C (centres unmarked) [Compound 107]
- Plant response rating, Surinam grass ([1]; Rate 62 g/ha, scale 0 to 100): 0
- Plant response rating, Surinam grass [1, 15]: 0
- Plant response rating, Surinam grass [1, 16]: 0
- Plant response rating, Surinam grass [1, 17]: 0
- Plant response rating, Chickweed ([2]; Rate 62 g/ha, scale 0 to 100): 50
- Plant response rating, Chickweed [2, 15]: 100
- Plant response rating, Chickweed [2, 16]: 100
- Plant response rating, Chickweed [2, 17]: 100
- Plant response rating, Cocklebur ([3]; Rate 62 g/ha, scale 0 to 100): 0
- Plant response rating, Cocklebur [3, 16]: 30
- Plant response rating, Cocklebur [3, 17]: 80
- Plant response rating, Ragweed, Common [4, 17]: 50
- Plant response rating, Corn (corn (Zea mays); Rate 62 g/ha, scale 0 to 100): 0
- Plant response rating, Corn (corn (Zea mays); [16]): 0
- Plant response rating, Corn (corn (Zea mays); [17]): 0
- Plant response rating, Corn (corn (Zea mays); scale 0 to 100): 0
- Plant response rating, Crabgrass ([5]; Rate 62 g/ha, scale 0 to 100): 0
- Plant response rating, Crabgrass [5, 16]: 0
- Plant response rating, Crabgrass [5, 17]: 20
- Plant response rating, Foxtail, Giant ([6]; Rate 62 g/ha, scale 0 to 100): 0
- Plant response rating, Foxtail, Giant [6, 16]: 0
- Plant response rating, Foxtail, Giant [6, 17]: 0
- Plant response rating, Goosegrass ([7]; Rate 62 g/ha, scale 0 to 100): 0
- Plant response rating, Goosegrass [7, 16]: 0
- Plant response rating, Goosegrass [7, 17]: 0
- Plant response rating, Johnsongrass ([8]; Rate 62 g/ha, scale 0 to 100): 0
- Plant response rating, Johnsongrass [8, 16]: 0
- Plant response rating, Johnsongrass [8, 17]: 0
- Plant response rating, Johnsongrass ([8]; rate not given, scale 0 to 100): 0
- Plant response rating, Kochia (kochia (Kochia scoparia); Rate 62 g/ha, scale 0 to 100): 70
- Plant response rating, Kochia (kochia (Kochia scoparia); [16]): 80
- Plant response rating, Kochia (kochia (Kochia scoparia); [17]): 85
- Plant response rating, Morningglory ([9]; Rate 62 g/ha, scale 0 to 100): 60
- Plant response rating, Morningglory [9, 16]: 100
- Plant response rating, Morningglory [9, 17]: 100
- Plant response rating, Pigweed ([10]; Rate 62 g/ha, scale 0 to 100): 50
- Plant response rating, Pigweed [10, 16]: 55
- Plant response rating, Pigweed [10, 17]: 90
- Plant response rating, Soybean (soybean (Glycine max); Rate 62 g/ha, scale 0 to 100): 0
- Plant response rating, Soybean (soybean (Glycine max); [16]): 20
- Plant response rating, Soybean (soybean (Glycine max); [17]): 25
- Plant response rating, Velvetleaf ([11]; Rate 62 g/ha, scale 0 to 100): 30
- Plant response rating, Velvetleaf [11, 16]: 50
- Plant response rating, Velvetleaf [11, 17]: 80
- Plant response rating, Velvetleaf ([11]; scale 0 to 100): 40
- Plant response rating, Cupgrass, Woolly ([13]; Rate 62 g/ha, scale 0 to 100): 0
- Plant response rating, Cupgrass, Woolly [13, 16]: 0
- Plant response rating, Cupgrass, Woolly [13, 17]: 0
- Plant response rating, Nutsedge ([14]; Rate 62 g/ha, scale 0 to 100): 0
- Plant response rating, Nutsedge [14, 16]: 0
- Plant response rating, Nutsedge [14, 17]: 0

Structure (SMILES): Cc1ccc(N2CCC(n3ccc(C(C)(C)C)n3)C2=O)cc1OCCCl (centres unmarked) [Compound 109]
- Plant response rating, Surinam grass ([1]; Rate 31 g/ha, scale 0 to 100): 0
- Plant response rating, Surinam grass ([1]; Rate 62 g/ha, scale 0 to 100): 0
- Plant response rating, Surinam grass [1, 15]: 0
- Plant response rating, Surinam grass [1, 16]: 0
- Plant response rating, Cocklebur ([3]; Rate 31 g/ha, scale 0 to 100): 0
- Plant response rating, Cocklebur ([3]; Rate 62 g/ha, scale 0 to 100): 40
- Plant response rating, Ragweed, Common ([4]; Rate 31 g/ha, scale 0 to 100): 0
- Plant response rating, Ragweed, Common ([4]; Rate 62 g/ha, scale 0 to 100): 0
- Plant response rating, Corn (corn (Zea mays); Rate 31 g/ha, scale 0 to 100): 0
- Plant response rating, Corn (corn (Zea mays); Rate 62 g/ha, scale 0 to 100): 0
- Plant response rating, Corn (corn (Zea mays); scale 0 to 100): 40
- Plant response rating, Crabgrass ([5]; Rate 31 g/ha, scale 0 to 100): 0
- Plant response rating, Crabgrass ([5]; Rate 62 g/ha, scale 0 to 100): 0
- Plant response rating, Crabgrass [5, 16]: 0
- Plant response rating, Foxtail, Giant ([6]; Rate 31 g/ha, scale 0 to 100): 0
- Plant response rating, Foxtail, Giant ([6]; Rate 62 g/ha, scale 0 to 100): 0
- Plant response rating, Foxtail, Giant [6, 16]: 0
- Plant response rating, Goosegrass ([7]; Rate 31 g/ha, scale 0 to 100): 0
- Plant response rating, Goosegrass ([7]; Rate 62 g/ha, scale 0 to 100): 0
- Plant response rating, Goosegrass [7, 16]: 10
- Plant response rating, Johnsongrass ([8]; Rate 31 g/ha, scale 0 to 100): 0
- Plant response rating, Johnsongrass ([8]; Rate 62 g/ha, scale 0 to 100): 0
- Plant response rating, Johnsongrass [8, 16]: 0
- Plant response rating, Johnsongrass ([8]; rate not given, scale 0 to 100): 0
- Plant response rating, Kochia (kochia (Kochia scoparia); Rate 31 g/ha, scale 0 to 100): 80
- Plant response rating, Kochia (kochia (Kochia scoparia); Rate 62 g/ha, scale 0 to 100): 80
- Plant response rating, Kochia (kochia (Kochia scoparia); [16]): 90
- Plant response rating, Morningglory ([9]; Rate 31 g/ha, scale 0 to 100): 60
- Plant response rating, Morningglory ([9]; Rate 62 g/ha, scale 0 to 100): 100
- Plant response rating, Pigweed ([10]; Rate 31 g/ha, scale 0 to 100): 70
- Plant response rating, Pigweed ([10]; Rate 62 g/ha, scale 0 to 100): 70
- Plant response rating, Pigweed [10, 16]: 70
- Plant response rating, Soybean (soybean (Glycine max); Rate 31 g/ha, scale 0 to 100): 60
- Plant response rating, Soybean (soybean (Glycine max); Rate 62 g/ha, scale 0 to 100): 70
- Plant response rating, Soybean (soybean (Glycine max); [16]): 70
- Plant response rating, Velvetleaf ([11]; Rate 31 g/ha, scale 0 to 100): 20
- Plant response rating, Velvetleaf ([11]; Rate 62 g/ha, scale 0 to 100): 40
- Plant response rating, Velvetleaf ([11]; scale 0 to 100): 70
- Plant response rating, Barley, Winter [12, 16]: 0
- Plant response rating, Cupgrass, Woolly ([13]; Rate 31 g/ha, scale 0 to 100): 0
- Plant response rating, Cupgrass, Woolly ([13]; Rate 62 g/ha, scale 0 to 100): 0
- Plant response rating, Cupgrass, Woolly [13, 16]: 0
- Plant response rating, Nutsedge ([14]; Rate 31 g/ha, scale 0 to 100): 0
- Plant response rating, Nutsedge ([14]; Rate 62 g/ha, scale 0 to 100): 0
- Plant response rating, Nutsedge [14, 16]: 0
